The text below walks through data of ChEMBL document CHEMBL4610037, “Discovery of 5-(pyridin-3-yl)-1H-indole-4,7-diones as indoleamine 2,3-dioxygenase 1 (IDO1) inhibitors” (Bioorg Med Chem Lett, 2020).

Calls of active or inactive are those of the source. The rule behind the calls is not given here. Where only a bound is given, the exact number is not on record here.

Assay [1] addresses T1, Indoleamine 2,3-dioxygenase 1 (Homo sapiens, UniProt P14902). In words: Inhibition of recombinant human IDO1 expressed in Escherichia coli at 10 uM relative to control.
Target sequence in this assay (P14902 whole entry, looked up): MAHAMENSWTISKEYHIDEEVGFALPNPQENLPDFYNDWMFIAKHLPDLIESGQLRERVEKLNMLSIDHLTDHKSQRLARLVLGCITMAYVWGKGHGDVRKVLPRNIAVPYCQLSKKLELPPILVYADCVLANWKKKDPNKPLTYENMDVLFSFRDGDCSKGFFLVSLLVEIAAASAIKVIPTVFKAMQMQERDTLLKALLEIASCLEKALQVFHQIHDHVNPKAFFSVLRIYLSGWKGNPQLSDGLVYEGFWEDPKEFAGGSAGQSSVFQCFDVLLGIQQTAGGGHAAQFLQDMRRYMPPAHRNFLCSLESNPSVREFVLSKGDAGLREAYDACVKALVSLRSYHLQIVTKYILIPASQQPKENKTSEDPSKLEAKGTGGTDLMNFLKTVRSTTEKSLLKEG
Assay [2] has as its target T1, Indoleamine 2,3-dioxygenase 1. In words: Inhibition of IFNgamma-stimulated IDO1 in human HeLa cells. Type of assay: cell-based.
Target sequence in this assay (P14902 whole entry): as the sequence (P14902 whole entry, looked up) above
Assay [3] shares this target. Kind of assay: Inhibition of recombinant human IDO1 expressed in Escherichia coli.
Target sequence in this assay (P14902 whole entry): as the sequence (P14902 whole entry, looked up) above
Assay [4] has the same target. In words: Competitive inhibition of recombinant human IDO1 expressed in Escherichia coli at 1 to 4 uM using L-tryptophan as substrate.
Target sequence in this assay (P14902 whole entry, looked up): as above
Assay [5] shares this target. In words: Reversible inhibition of recombinant human IDO1 expressed in Escherichia coli at 100 uM using L-tryptophan as substrate.
Target sequence in this assay (P14902 whole entry, looked up): as above

As a reminder, the inhibition is how much of the control response was suppressed. In general, EC50 refers to the concentration that produces a half-maximal response. Read a high EC50 as lower potency in that assay. Usually IC50 stands for the concentration at which inhibition is half-maximal.

In the case of `CC(C)(C)OC(=O)NCCc1c[nH]c2c1C(=O)C(c1cccnc1)=CC2=O`, the inhibition in assay [1] stood at 66.5%. Moreover, the 50% effective concentration (EC50) in assay [2] was found to be 5.4 µM. For the same molecule, the IC50 in assay [3] is 1.9 µM. Moreover, the inhibition entry in assay [4] and in assay [5] was “Active” in each case.
Take `CC(C)(C)CNCCc1c[nH]c2c1C(=O)C(c1cccnc1)=CC2=O`: in assay [1], the inhibition worked out at 79.5%. This molecule gave an EC50 in assay [2] of 4.53 µM. For the same molecule, the IC50 in assay [3] was 0.56 µM.
The matching figures for `O=C(NCCc1c[nH]c2c1C(=O)C(c1cccnc1)=CC2=O)c1ccccc1`: 65.7%, 5.09 µM and 2.08 µM.
For `CC(C)(C)C(=O)NCCc1c[nH]c2c1C(=O)C(c1cccnc1)=CC2=O`, in that order: 72.3%, 4.6 µM and 0.77 µM.
For `O=C1C=C(c2cccnc2)C(=O)c2c(CCNCCc3ccccc3)c[nH]c21`, in that order: 68.3%, more than 10 µM and 4 µM.
For `O=C1C=C(c2cccnc2)C(=O)c2c(CCNS(=O)(=O)c3ccccc3)c[nH]c21`, the inhibition in assay [1] is 59.7%. Also, the EC50 in assay [2] was found to be 4.92 µM. Also, in assay [3], the IC50 came out at 3.51 µM.
In the case of `CC(C)(C)OC(=O)NCCc1c[nH]c2c1C(=O)C(c1ccccc1F)=CC2=O`, the inhibition in assay [1] was determined as 67.3%. Further, the IC50 in assay [3] turned out to be 2.09 µM.
As for `CC(=O)NCCc1c[nH]c2c1C(=O)C(c1cccnc1)=CC2=O`, the inhibition in assay [1] was found to be 57.5%. In assay [2], the EC50 was more than 10 µM. For the same molecule, in assay [3], the 50% inhibitory concentration (IC50) stood at 1.36 µM.
As to `COc1ccccc1C1=CC(=O)c2[nH]cc(CCNC(=O)OC(C)(C)C)c2C1=O`, the inhibition in assay [1] was determined as 63.2%. Besides, the IC50 in assay [3] was found to be 2.38 µM.
`COc1ccc(C2=CC(=O)c3[nH]cc(CCNC(=O)OC(C)(C)C)c3C2=O)cc1`: the inhibition in assay [1] amounted to 34.5%.
Turning to `CC(C)(C)OC(=O)NCCc1c[nH]c2c1C(=O)C(c1ccccc1)=CC2=O`, in assay [1], the inhibition turned out to be 56.4%. In addition, the concentration for half-maximal inhibition (IC50) in assay [3] is 2.94 µM.
As to `CCNCCc1c[nH]c2c1C(=O)C(c1cccnc1)=CC2=O`, in assay [1], the inhibition is 81.7%. This molecule also returned a concentration giving a half-maximal response (EC50) in assay [2] of 3.58 µM. Besides, the IC50 in assay [3] came out at 0.16 µM.
The matching figures for `CCN(CC)CCc1c[nH]c2c1C(=O)C(c1cccnc1)=CC2=O`: 64.2%, more than 10 µM and 2.26 µM.
Turning to `CN(C)CCc1c[nH]c2c1C(=O)C(c1cccnc1)=CC2=O`, the inhibition in assay [1] was 71.3%. The same molecule registered an EC50 in assay [2] of 4.22 µM. In addition, in assay [3], the IC50 was found to be 0.5 µM.
As for `Cc1ccc(C2=CC(=O)c3[nH]cc(CCNC(=O)OC(C)(C)C)c3C2=O)cc1`, the inhibition in assay [1] worked out at 25.5%.
On to `CCCCNCCc1c[nH]c2c1C(=O)C(c1cccnc1)=CC2=O`, for which, in assay [1], the inhibition turned out to be 79.2%. In assay [2], the concentration giving a half-maximal response (EC50) amounted to 2.72 µM. Also, the half-maximal inhibitory concentration (IC50) in assay [3] was found to be 0.88 µM.
For `NCCc1c[nH]c2c1C(=O)C(c1cccnc1)=CC2=O`, in that order: 74.9%, 6.62 µM and 0.51 µM.
For the molecule `O=C1C=C(c2cccnc2)C(=O)c2c(CCNC3CCCCC3)c[nH]c21`, the inhibition in assay [1] was found to be 65%. Further, in assay [2], it took 2.54 µM to reach a half-maximal effect (EC50). In addition, the half-maximal inhibitory concentration (IC50) in assay [3] worked out at 1.5 µM.
`CC(C)NCCc1c[nH]c2c1C(=O)C(c1cccnc1)=CC2=O`: the inhibition in assay [1] amounted to 63.8%. A half-maximal effect in assay [2] (EC50) was put at 2.6 µM. For the same molecule, the IC50 in assay [3] amounted to 0.51 µM.
With `CC(C)(C)OC(=O)NCCc1c[nH]c2c1C(=O)C(c1ccncc1)=CC2=O`, the inhibition in assay [1] was determined as 12.4%.
The same measure, in the same setting: the result for `CC(C)(C)OC(=O)NCCc1c[nH]c2c1C(=O)C(c1ccc(F)cc1)=CC2=O` reads 43.3%.
